Values of other authors in patent US7094805B2, “Total synthesis of merrilactone A” (The Trustees of Columbia University in the City of New York, priority 2001, dated 2006).

System: fetal rat cortical neurons

## C[C@@]12COC(=O)[C@]1(C)[C@@H]1O[C@]3(C)[C@@H](O)C[C@]24OC(=O)C[C@]143 (racemic) [compound 1, merrilactone A]
General statement
  promotion of neurite outgrowth: promote neurite outgrowth
Preliminary studies, natural merrilactone A, "at concentrations as low as"
  concentrations at which neurite outgrowth is greatly promoted: 0.1 to 10 µmol
